Measured values from US5242684A, “Antimicrobial, low toxicity, non-irritating composition comprising a blend of bis-quaternary ammonium compounds coprecipitated with a copolymer of vinylpyrrolidone and an acrylamido or vinyl quaternary ammonium monomer” (ISP Investments Inc., priority 1991, dated 1993).

Legend:
E.Coli = test: Minimum Inhibitory Concentration (MIC) against E.Coli; type: cell-based; conditions: Gram negative, coprecipitates at 50:50 wt. ratio with GAFQUAT HS-100, unit assumed
Text: The antimicrobial activity of the products herein are represented by their Minimum Inhibitory Concentration (MIC) against E.Coli, a Gram negative microorganism. Their effect on skin is indicated by an Irritation Index. These properties are presented in the Table below for the individual compounds in blend D and the invention composition of several D, H and L blend compositions coprecipitated in a 50:50 wt. ratio with GAFQUAT® HS-100.

LD50 toxicity (on rats) = conditions: rat, in vivo

Row | SMILES | MIC (E.Coli) [µg/mL] | LD50 (LD50 toxicity (on rats)) [mg/kg]
1 | CCCCCCCCCCCCCC[N+](C)(C)CCOCCOCC[N+](C)(C)CCCCCCCCCCCC [B compound in D blend] | 50 | 700
2 | CCCCCCCCCCCC[N+](C)(C)CCOCCOCC[N+](C)(C)CCCCCCCCCCCC [A compound in D blend] | 100 | 300
3 | CCCCCCCCCCCCCC[N+](C)(C)CCOCCOCC[N+](C)(C)CCCCCCCCCCCCCC [C compound in D blend] | 125 | 950
